Test results: ChEMBL document CHEMBL1201862, “PubChem BioAssay data set” (2004)
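Briefly, cells in 96-well plates were exposed to five compound concentrations for 48 h, and endpoints were estimated by linear interpolation. The concentration for 50% growth inhibition is given as GI50.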 The source made the active and inactive calls. No stated cut-off is given here; in the data, active = GI50 up to about 1.1 µM and inactive = higher.

How the values were obtained:
Test in all cases: NCI-60 cell line screen, 48 h
Hs-578T = tested on: Hs-578T
SK-OV-3 = tested on: SK-OV-3
T47D = tested on: T47D
CCRF-CEM = tested on: CCRF-CEM
ACHN = tested on: ACHN
LOX IMVI = tested on: LOX IMVI
NCI-H23 = tested on: NCI-H23
UO-31 = tested on: UO-31
HT-29 = tested on: HT-29
UACC-257 = tested on: UACC-257
A549 = tested on: A549
OVCAR-5 = tested on: OVCAR-5
MDA-N = tested on: MDA-N
MCF7 = tested on: MCF7
UACC-62 = tested on: UACC-62
CAKI-1 = tested on: CAKI-1
RPMI-8226 = tested on: RPMI-8226
HCC 2998 = tested on: HCC 2998
COLO 205 = tested on: COLO 205
SF-268 = tested on: SF-268
BT-549 = tested on: BT-549
OVCAR-8 = tested on: OVCAR-8
HOP-92 = tested on: HOP-92
Malme-3M = tested on: Malme-3M
HL-60 = tested on: HL-60
NCI-H460 = tested on: NCI-H460
OVCAR-4 = tested on: OVCAR-4
U-251 = tested on: U-251
M14 = tested on: M14
SK-MEL-5 = tested on: SK-MEL-5
OVCAR-3 = tested on: OVCAR-3
NCI-H522 = tested on: NCI-H522
NCI/ADR-RES = tested on: NCI/ADR-RES
PC-3 = tested on: PC-3
SW-620 = tested on: SW-620
RXF 393 = tested on: RXF 393
IGROV-1 = tested on: IGROV-1
SN12C = tested on: SN12C
SK-MEL-28 = tested on: SK-MEL-28
SF-295 = tested on: SF-295
MDA-MB-435 = tested on: MDA-MB-435
NCI-H226 = tested on: NCI-H226
TK-10 = tested on: TK-10
SF-539 = tested on: SF-539
SK-MEL-2 = tested on: SK-MEL-2
SNB-75 = tested on: SNB-75
EKVX = tested on: EKVX
DU-145 = tested on: DU-145
KM12 = tested on: KM12
HCT-116 = tested on: HCT-116
HOP-62 = tested on: HOP-62
SNB-19 = tested on: SNB-19
MOLT-4 = tested on: MOLT-4
K562 = tested on: K562

Measured: GI50

CC1(C)OCC=CCO1
inactive: Hs-578T > 100 µM | SK-OV-3 > 100 µM | T47D > 100 µM | CCRF-CEM 62.5 µM | ACHN > 100 µM | LOX IMVI 50.9 µM | NCI-H23 > 100 µM | UO-31 > 100 µM | HT-29 > 100 µM | UACC-257 > 100 µM | A549 > 100 µM | OVCAR-5 > 100 µM | MDA-N > 100 µM | MCF7 56 µM | UACC-62 > 100 µM | CAKI-1 > 100 µM | RPMI-8226 > 100 µM | HCC 2998 > 100 µM | COLO 205 > 100 µM | SF-268 > 100 µM | BT-549 > 100 µM | OVCAR-8 > 100 µM | HOP-92 > 100 µM | Malme-3M > 100 µM | HL-60 71.4 µM | NCI-H460 > 100 µM | OVCAR-4 > 100 µM | U-251 > 100 µM | M14 > 100 µM | SK-MEL-5 > 100 µM | OVCAR-3 59.7 µM | NCI-H522 69.8 µM | NCI/ADR-RES > 100 µM | PC-3 > 100 µM | SW-620 > 100 µM | RXF 393 > 100 µM | IGROV-1 > 100 µM | SN12C > 100 µM | SK-MEL-28 > 100 µM | SF-295 > 100 µM | MDA-MB-435 > 100 µM | NCI-H226 > 100 µM | TK-10 > 100 µM | SF-539 67.8 µM | SK-MEL-2 > 100 µM | SNB-75 > 100 µM | EKVX > 100 µM | DU-145 > 100 µM | KM12 > 100 µM | HCT-116 > 100 µM | HOP-62 > 100 µM | SNB-19 > 100 µM | MOLT-4 > 100 µM | K562 67.8 µM
